Measurements from US7022675B2, “Wound healing compositions” (University of Southern California, priority 1997, dated 2006).

What was measured:
[1] = tested on: wound tissue; details: application to wound tissue; cited from earlier work
[2] = tested on: water intake; details: injected into the anterior diencephalon in the rat, Fitzsimons 1971; cited from earlier work
[3] = tested on: blood pressure; details: intracerebroventricular infusion in the rat, concentrations 1,000 times higher than that of AII that increased blood pressure, Wright et al. 1989; cited from earlier work
[4] = tested on: full thickness dermal wounds; experiment: in vivo wound healing assay, full thickness dermal wounds in rats; parameters: species or system Sprague Dawley rats; details: 100 μg/wound in 10% carboxymethyl cellulose, daily for first five days; measured days 2, 4, 7 and 9
Protocol: Analogs of angiotensin II and analogs of angiotensin II fragments having the structures disclosed herein were prepared using an automated peptide synthesizer and methods familiar to those having ordinary skill in the art. Each of the analogs was tested for its ability to accelerate wound healing according to the method described below. Results of procedures were used to determine the extent of wound closure at days 2, 4, 7 and 9, measured as a percentage of a vehicle-treated control wound. Since all of the analogs were not tested during the same experimental procedure, AII was included as a positive control for each group of peptides tested.
Female Sprague Dawley rats, 12 weeks old, were obtained from Simonsen Laboratories, Gilroy, Calif. On the day of surgery, the rats received intramuscular ketamine/rompum anesthesia prior to preparation for surgery. […] At days 2, 4, 7 and 9, the area of the skin wounds was measured under methoxyflurane anesthesia (commercially available as Metofane from Pittman-Moore, Mundelein, Ill.). The area of the wound was determined by (1) tracing the wound shape onto graph paper (1×1 mm squares); (2) cutting out the shape; (3) weighing the paper and comparing the weight with a 1.5×1.5 cm paper cutout; and (4) counting the number of squares. In addition, on days 2 and 4 the area of granulation tissue was similarly determined.

[5] = tested on: blood pressure; details: cited from earlier work
[6] = tested on: rat carotid artery; details: cited from earlier work; for reduction of intimal hyperplasia / intimal area: treatment of rats, Pratt et al. 1992; for neointimal formation: similar model, Janiak et al. 1992, CGP 42112 infused perivascularly for 14 days, losartan at low doses

Asp-Arg-Val-Tyr-Ile-His-Pro-Phe (DRVYIHPF) [angiotensin II, positive control]
rate of wound healing [1]: significantly increases

AII(5-8): AII fragment (IHPF; Angiotensin 2; UniProt P01019 29-32, looked up, fragment)
effect on water intake [2]: only a slight effect | effect on blood pressure [3]: minimal effect

Tyr-Ile-His-Pro-Phe (YIHPF) [AII(4-8)]
wound closure relative to vehicle-treated control wounds [4]: not to be effective | effect on water intake [2]: only a slight effect | effect on blood pressure [3]: minimal effect

AII(1-7): fragment of AII (DRVYIHP; Angiotensin 2; UniProt P01019 25-31, looked up, fragment)
amount needed for a comparable pressor response, relative to AII ([5]; Benter et al. 1993): about 10,000 times more AII(1-7) than AII | dose needed for effects on blood pressure (pressor), relative to AII ([5]; depending upon the model tested and route of administration): 10,000-100,000 times the dose of AII | effect on water intake [2]: completely inactive

AII(1-4): AII fragment (DRVY; Angiotensin 2; UniProt P01019 25-28, looked up, fragment)
effect on water intake [2]: only a slight effect

Cc1cc(Cn2cnc3c2C[C@@H](C(=O)O)N(C(=O)C(c2ccccc2)c2ccccc2)C3)ccc1N(C)C [PD 123319]
reduction of intimal hyperplasia / intimal area [6]: 73%

His-Pro-Phe [AII(6-8)]
wound closure relative to vehicle-treated control wounds [4]: not to be effective

CCCCc1nc(Cl)c(CO)n1Cc1ccc(-c2ccccc2-c2nn[nH]n2)cc1 [losartan]
neointimal formation [6]: ineffective | reduction of intimal hyperplasia / intimal area [6]: 95%

CGP 42112
neointimal formation [6]: prevented neointimal formation
